In patent US20150259331A1, “PROTOZOAN PARASITE GROWTH INHIBITORS” (Northeastern University, priority 2014, published 2015):
pEC50, pIC50: −log10 of the molar value. Structures can show the parent of a compound that is named as a salt. Where two headings read alike, the source gives them in different places. Marks after values point to notes of the source that are not given here.

Tests used:
[1] = system: T. brucei brucei Lister 427; assay: Trypanosome replication assay; assay type: cell-based, Trypanosoma brucei brucei; conditions: 48 h, 48 h, values ±7%
Method: (§1) Then 2 μL of DMSO (control) or different concentrations of drugs prepared from 200× DMSO stocks were added to the cultures. Cells were incubated at 37° C. for 48 h and counted with a hemocytometer. […] All experiments were repeated thrice in independent studies where each dose was administered in duplicate (total n=6). HepG2 Cell Toxicity Assay. The 384 well MTT cytotoxicity assay is a modification of the MTT method described by Ferrari et al. optimized for 384-well throughput, with modifications described below.

HepG2 cells = assay: HepG2 cell toxicity (MTT) assay; assay type: cell-based
Method: as §1, with “cultures.” for “cultures. Cells were incubated at 37° C. for 48 h and counted with a hemocytometer.”
HepG2 Cell Toxicity assay. The 384 well MTT cytotoxicity assay is a modification of the MTT method described by Ferrari et al.^1 ENREF—26_ENREF—26_ENREF—26 optimized for 384 well throughput. […] 4.25 μL of diluted test compound was then added to the 38.3 μL of media in each well providing a 10 fold final dilution of compound. […] After a 48 hour incubation period, 8 μL of a 1.5 mg/ml solution of MTT diluted in complete MEM media was added to each well. All plates were subsequently incubated in the dark for 1 hour at room temperature. After incubation, the media and drugs in each well was removed by shaking plate over sink, the plates are then left to dry in hood for 15 minutes. […] Plates are put on a 3-D rotator for 15-30 minutes. Absorbance was determined in all wells using a Tecan iControl 1.6 Infinite plate reader.

T. cruzi = T. cruzi growth inhibition; assay type: cell-based, Trypanosoma cruzi; conditions: for inhibition at 10 µM: read-out: T. cruzi % inh at 10 μM
L. major promastigote = L. major promastigote assay; assay type: cell-based
L. major amastigote = L. major amastigote assay; assay type: cell-based
P. falciparum D6 = P. falciparum D6 assay; assay type: cell-based; conditions: strain D6
P. falciparum W2 = P. falciparum W2 assay; assay type: cell-based
P. falciparum C235 = P. falciparum C235 assay; assay type: cell-based; conditions: read-out: P. falciparum C235 (EC50)
[2] = Trypanosoma brucei, concentration giving 50% inhibition of growth of T brucei brucei Lister 427 cells, read-out: Tbb EC50
[3] = Homo sapiens, HepG2, 48 h, MTT, 48 hour incubation, read-out: HepG2 IC50
[4] = MTT, 48 hour incubation, read-out: HepG2 IC50
[5] = Plasmodium falciparum, strain W2, read-out: P. falciparum W2 (EC50)
[6] = Plasmodium falciparum, strain C235
[7] = Trypanosoma brucei, read-out: Tbb EC50, concentration giving 50% inhibition of growth of T brucei brucei Lister 427 cells
[8] = Homo sapiens, HepG2, 48 h, read-out: HepG2 IC50, MTT, 48 hour incubation
[9] = read-out: HepG2 IC50, MTT, 48 hour incubation
[10] = Plasmodium falciparum, W2, read-out: P. falciparum W2 (EC50)
[11] = concentration giving 50% inhibition of growth of T brucei brucei Lister 427 cells, read-out: Tbb EC50
[12] = strain W2, read-out: P. falciparum W2 (EC50)

Structure (SMILES)	pEC50 [1, 11]	pEC50 (L. major promastigote)	pEC50 (L. major amastigote)	pEC50 (P. falciparum D6)	pEC50 (P. falciparum W2; [12])	pEC50 (P. falciparum C235; strain C235)	pEC50 (T. cruzi)	further results
O=S(=O)(c1ccc(-c2ccc3ncnc(Nc4ccc(OCc5cccc(F)c5)c(Cl)c4)c3c2)cc1)N1CCOCC1 [Compound 10a, N-(3-Chloro-4-((3-fluorobenzyl)oxy)phenyl)-6-(4-(morpholinosulfonyl)phenyl)quinazolin-4-amine]								pEC50 [1, 2]: 5.86; pEC50 ([1]; concentration giving 50% inhibition of growth of T brucei brucei Lister 427 cells, listed as NEU-369, read-out: Tbb EC50): 5.89; pIC50 (HepG2 cells; [3]): < 4.82; pEC50 (HepG2 cells; Homo sapiens, HepG2, read-out: HepG2 cell growth EC50): < 4.82; pIC50 (HepG2 cells; [4]): < 4.70; inhibition at 10 µM (T. cruzi; Trypanosoma cruzi): -46%; pEC50 (L. major promastigote; Leishmania major): 5.89; pEC50 (L. major amastigote; Leishmania major): 5.80; pEC50 (P. falciparum D6; Plasmodium falciparum): 6.66; pEC50 (P. falciparum W2; [5]): 6.16; pEC50 (P. falciparum C235; [6]): 6.39
O=S(=O)(c1cccc(-c2ccc3ncnc(Nc4ccc(OCc5cccc(F)c5)c(Cl)c4)c3c2)c1)N1CCOCC1 [Compound 10k, N-(3-Chloro-4-((3-fluorobenzyl)oxy)phenyl)-6-(3-(morpholinosulfonyl)phenyl)quinazolin-4-amine]								pEC50 [1, 7]: 6.48; pIC50 (HepG2 cells; [8]): < 4.82; pIC50 (HepG2 cells; [9]): < 4.70; pEC50 (T. cruzi; Trypanosoma cruzi): 5.77; pEC50 (L. major promastigote; Leishmania major): < 4.82; pEC50 (L. major amastigote; Leishmania major): < 4.82; pEC50 (P. falciparum D6; Plasmodium falciparum): 6.55; pEC50 (P. falciparum W2; [5]): 6.40; pEC50 (P. falciparum C235; [6]): 6.54
O=S(=O)(c1ccc(-c2ccc3ncnc(Nc4ccc(OCc5cccc(F)c5)c(Cl)c4)c3c2)cc1)N1CCCCC1 [Compound 10l, N-(3-Chloro-4-((3-fluorobenzyl)oxy)phenyl)-6-(4-(piperidin-1-ylsulfonyl)phenyl)quinazolin-4-amine]								pEC50 [1, 7]: 6.49; pIC50 (HepG2 cells; [8]): < 4.82; pIC50 (HepG2 cells; [9]): < 4.70; inhibition at 10 µM (T. cruzi; Trypanosoma cruzi): 1%; pEC50 (L. major promastigote; Leishmania major): < 4.82; pEC50 (L. major amastigote; Leishmania major): < 4.82; pEC50 (P. falciparum D6; Plasmodium falciparum): 6.74; pEC50 (P. falciparum W2; [10]): 6.48; pEC50 (P. falciparum C235; Plasmodium falciparum): 6.62
O=S(=O)(c1cccc(-c2ccc3ncnc(Nc4ccc(OCc5cccc(F)c5)c(Cl)c4)c3c2)c1)N1CCCCC1 [Compound 10m, N-(3-Chloro-4-((3-fluorobenzyl)oxy)phenyl)-6-(3-(piperidin-1-ylsulfonyl)phenyl)quinazolin-4-amine]								pEC50 [1, 7]: 6.34; pIC50 (HepG2 cells; [8]): < 4.82; pIC50 (HepG2 cells; [9]): < 4.70; pEC50 (T. cruzi; Trypanosoma cruzi): < 4.30; pEC50 (L. major promastigote; Leishmania major): < 4.82; pEC50 (L. major amastigote; Leishmania major): < 4.82; pEC50 (P. falciparum D6; Plasmodium falciparum): 6.48; pEC50 (P. falciparum W2; [10]): 6.23; pEC50 (P. falciparum C235; Plasmodium falciparum): 6.46
O=S(=O)(c1ccc(-c2ccc3ncnc(Nc4ccc(OCc5cccc(F)c5)c(Cl)c4)c3c2)cc1)N1CCCC1 [Compound 10n]	6.46	< 4.82	< 4.82	6.70	6.10	6.38		pIC50 (HepG2 cells; [4]): < 4.82; T. cruzi % inh at 10 μM (T. cruzi): (10)* %
O=S(=O)(c1cccc(-c2ccc3ncnc(Nc4ccc(OCc5cccc(F)c5)c(Cl)c4)c3c2)c1)N1CCCC1 [Compound 10o]	6.60	< 4.82	< 4.82	6.72	6.32	6.52		pIC50 (HepG2 cells; [4]): < 4.82; T. cruzi % inh at 10 μM (T. cruzi): (32)* %
O=S(=O)(c1ccc(-c2ccc3ncnc(Nc4ccc(OCc5cccc(F)c5F)c(Cl)c4)c3c2)cc1)N1CCOCC1 [Compound 20h, N-(3-Chloro-4-((2,3-difluorobenzyl)oxy)phenyl)-6-(4-(morpholinosulfonyl)phenyl)quinazolin-4-amine Hydrochloride]								pEC50 [1, 2]: 6.09; pIC50 (HepG2 cells; [3]): < 4.82
Cl.O=S(=O)(c1ccc(-c2ccc3ncnc(Nc4ccc(OCc5ccccc5F)c(Cl)c4)c3c2)cc1)N1CCOCC1 [Compound 20i, N-(3-Chloro-4-((2-fluorobenzypoxy)phenyl)-6-(4-(morpholinosulfonyl)phenyl)quinazolin-4-amine Hydrochloride]		6.15	< 4.82	6.89	6.24	6.66		pEC50 ([1]; concentration giving 50% inhibition of growth of T brucei brucei Lister 427 cells, Hydrochloride, read-out: Tbb EC50): 5.78; pEC50 ([1]; concentration giving 50% inhibition of growth of T brucei brucei Lister 427 cells, listed as NEU-565, Hydrochloride, read-out: Tbb EC50): 5.77; pIC50 (HepG2 cells; [4]): < 4.82
Fc1cccc(COc2ccc(Nc3ncnc4ccc(-c5cccc(-n6cccn6)c5)cc34)cc2Cl)c1 [NEU-709]	5.12	< 4.82	< 4.82	4.72	4.72	4.72		T. cruzi % inh at 10 μM (T. cruzi): (10)* %
Fc1cccc(COc2ccc(Nc3ncnc4ccc(-c5ccc(N6CCNCC6)cc5)cc34)cc2Cl)c1 [NEU-710]	6.43	< 4.82	5.07	6.42	6.20	6.12	5.85	
Fc1cccc(COc2ccc(Nc3ncnc4ccc(-c5cccc(N6CCSCC6)c5)cc34)cc2Cl)c1 [NEU-713]	6.11	< 4.82	5.00	6.36	5.89	6.11		T. cruzi % inh at 10 μM (T. cruzi): (55)* %
CN1CCN(c2cccc(-c3ccc4ncnc(Nc5ccc(OCc6cccc(F)c6)c(Cl)c5)c4c3)c2)CC1 [NEU-714]	6.26	5.72	5.38	7.36	7.23	6.96		T. cruzi % inh at 10 μM (T. cruzi): (72)* %
Fc1cccc(Cn2ncc3ccc(Nc4ncnc5ccc(-c6cccc(N7CCOCC7)c6)cc45)cc32)c1 [NEU-734]	6.08	6.01	< 4.82	6.04	6.13	5.96		T. cruzi % inh at 10 μM (T. cruzi): (62)* %
CN1CCN(S(=O)(=O)c2ccc(-c3ccc4ncnc(Nc5ccc(OCc6ccccc6)c(Cl)c5)c4c3)cc2)CC1 [NEU-764]	6.21	5.47	5.66	7.54	7.29	7.55	5.41	
CN1CCN(S(=O)(=O)c2ccc(-c3ccc4ncnc(Nc5ccc(OCc6ccccc6)cc5)c4c3)cc2)CC1 [NEU-765]	6.20	5.82	5.72	7.39	6.96	7.44	5.00	
COc1ccc(Nc2ncnc3ccc(-c4ccc(S(=O)(=O)N5CCN(C)CC5)cc4)cc23)cc1Cl [NEU-766]	6.11	5.23	< 4.82	7.48	6.68	7.24	< 4.30	
CN1CCN(S(=O)(=O)c2ccc(-c3ccc4ncnc(Nc5ccccc5)c4c3)cc2)CC1 [NEU-767]	5.82	5.21	< 4.82	6.15	5.82	6.14	< 4.30	
CN1CCN(S(=O)(=O)c2ccc(-c3ccc4ncnc(Nc5ccc(F)cc5)c4c3)cc2)CC1 [NEU-768]	5.70	4.92	< 4.82	6.44	6.11	6.42	< 4.30	
CN1CCN(S(=O)(=O)c2ccc(-c3ccc4ncnc(Nc5ccc(Cl)cc5)c4c3)cc2)CC1 [NEU-769]	5.62	5.34	< 4.82	6.96	6.41	6.77	4.68	
CN1CCN(S(=O)(=O)c2cccc(-c3ccc4ncnc(Nc5ccc(OCc6cccc(F)c6)c(Cl)c5)c4c3)c2)CC1 [NEU-770]	5.48	< 4.82	5.92	7.42	7.08	7.48	5.85	
CN1CCN(S(=O)(=O)c2ccc(-c3ccc4ncnc(Nc5ccc6cnn(Cc7cccc(F)c7)c6c5)c4c3)cc2)CC1 [NEU-771]	5.92	< 4.82	< 4.82	7.41	7.05	7.40	5.82	
